System: pdr5 ypt1^ts cells
Test: microbe, parasite or virus in culture
Assay type: cell-based, yeast
Conditions: 37° C.; for minimal effective concentration: Saccharomyces cerevisiae, lowest concentration tested giving growth above the 0 μM background, read-out: ypt1-ts MRC (minimal rescue concentration); for minimal effective concentration / optical density, ypt1-ts, 0.39 / optical density, ypt1-ts, 0.78 / optical density, ypt1-ts, 1.56 / optical density, ypt1-ts, 3.13 / optical density, ypt1-ts, 6.25 / optical density, ypt1-ts, 12.5 / optical density, ypt1-ts, 25: Table 2; for optical density, ypt1-ts, 0.39: 0.39 μM compound; for optical density, ypt1-ts, 0.39 / optical density, ypt1-ts, 0.78 / optical density, ypt1-ts, 1.56 / optical density, ypt1-ts, 3.13 / optical density, ypt1-ts, 6.25 / optical density, ypt1-ts, 12.5 / optical density, ypt1-ts, 25: background (0 μM) 0.058; for optical density, ypt1-ts, 0.78: 0.78 μM compound; for optical density, ypt1-ts, 1.56: 1.56 μM compound; for optical density, ypt1-ts, 3.13: 3.13 μM compound; for optical density, ypt1-ts, 6.25: 6.25 μM compound; for optical density, ypt1-ts, 12.5: 12.5 μM compound; for optical density, ypt1-ts, 25: 25 μM compound; for optical density, 3.13 uM / optical density, 12.5 uM / optical density, 50 uM: Table 3, background (0 uM) 0.077; for optical density, 3.13 uM: 3.13 uM compound; for optical density, 12.5 uM: 12.5 uM compound; for optical density, 50 uM: 50 uM compound
Excerpt: The activity of the compounds as modulators of protein trafficking may be measured in the assays described herein that evaluate the ability of a compound to rescue an impairment in protein trafficking. For example, the yeast mutant cell line ypt1^ts can be used to identify compounds that rescue cells from the lethal phenotype of a mutant YPT1 allele (see, e.g., Examples and Schmitt et al. (1988) Cell 53:635-47). The activity may be measured, for example, in a whole yeast cell assay using 384-well screening protocol and an optical density measurement.
The yeast mutant cell line ypt1^ts suppresses, in a temperature dependent fashion, the dominant-lethal phenotype of a mutant YPT1 allele (Schmitt et al. (1988) Cell 53:635-47). ypt1^ts cells grow normally at temperatures up to 30° C., but are growth arrested at 37° C. (Id.).
A library of compounds (“The Spectrum Collection”) obtained from Microsource Discovery Systems, Inc. (Gaylordsville, Conn.) was screened to assess the ability of individual compounds to restore growth of ypt1^ts cells. Screening was carried out using ypt1^ts cells containing a mutation in the pdr5 gene (resulting in inactivation of a membrane efflux pump). The effect of the compounds was measured in pdr5 ypt1^ts cells cultured at 37° C.

| Compound | minimal effective concentration [µM] | optical density, ypt1-ts, 0.39 | optical density, ypt1-ts, 0.78 | optical density, ypt1-ts, 1.56 | optical density, ypt1-ts, 3.13 | optical density, ypt1-ts, 6.25 | optical density, ypt1-ts, 12.5 | optical density, ypt1-ts, 25 | optical density, 3.13 uM | optical density, 12.5 uM | optical density, 50 uM |
| --- | --- | --- | --- | --- | --- | --- | --- | --- | --- | --- | --- |
| CC(=O)c1cc(CC=C(C)C)c(O)c(CC=C(C)C)c1 | 25 | 0.085 | 0.077 | 0.082 | 0.108 | 0.096 | 0.112 | 0.195 | – | – | – |
| COc1ccc2c(c1)OCC(Cc1ccc(OC)c(O)c1)C2=O (centres unmarked) | 12.5 | 0.099 | 0.068 | 0.085 | 0.101 | 0.125 | 0.319 | 0.62 | – | – | – |
| O=C(/C=C(\O)c1ccccc1)c1ccccc1O [2',beta- DIHYDROXYCHALCONE] | 12.5 | 0.083 | 0.072 | 0.076 | 0.096 | 0.124 | 0.31 | 0.551 | – | – | – |
| CCOc1ccc(C(=O)c2ccc(O)c(O)c2O)cc1 [2,3,4-TRIHYDROXY-4'- ETHOX[…]] | 12.5 | 0.114 | 0.074 | 0.081 | 0.103 | 0.1 | 0.169 | 0.365 | – | – | – |
| COC(=O)CCCOc1ccc(Cl)cc1Cl [2,4-DICHLORO- PHENOXY- BUTYRIC ACID, METHYL ESTER] | – | – | – | – | – | – | – | – | 0.159 | 0.255 | 0.221 |
| CCOC(=O)C1(O)Oc2cc(OC)cc(OC)c2C(=O)C1c1ccccc1 (centres unmarked) [2-ETHOXY- CARBONYL-2- HYDROXY-5,7- DIMETHOXY- ISOFLAVANONE] | – | – | – | – | – | – | – | – | 0.091 | 0.134 | 0.468 |
| O=c1c2ccccc2oc2ccc(O)cc12 [2-HYDROXY- XANTHONE] | – | – | – | – | – | – | – | – | 0.107 | 0.257 | 0.571 |
| COc1cccc(/C=C/C(=O)O)c1C(C)C [2-ISOPROPYL-3- METHOXYCINNAMIC ACID] | 12.5 | 0.097 | 0.079 | 0.086 | 0.111 | 0.123 | 0.184 | 0.397 | – | – | – |
| COc1ccc2oc3ccccc3c(=O)c2c1 [2-METHOXYXANTHONE] | – | 0.093 | 0.069 | 0.083 | 0.094 | 0.108 | 0.128 | 0.221 | – | – | – |
| Cc1[nH]c2ccccc2c1CN(C)C [2-METHYL GRAMINE] | – | – | – | – | – | – | – | – | 0.084 | 0.106 | 0.295 |
| CCCc1occc(=O)c1/C=C/O [2-PROPYL-3- HYDRO[…]-4-ONE] | 25 | 0.091 | 0.079 | 0.083 | 0.092 | 0.088 | 0.104 | 0.126 | – | – | – |
| c1ccc2c(Cc3c[nH]c4ccccc34)c[nH]c2c1 [3,3'- DIINDOLYLMETHANE] | 3.13 | 0.205 | 0.097 | 0.118 | 0.164 | 0.154 | 0.263 | 0.035 | – | – | – |
| CCOc1cccc(C(=O)c2ccc(O)c(O)c2O)c1 [3,4-DIDESMETHYL-5- DESHYDROXY-3'- ETHOXYSCLEROIN] | 6.25 | 0.094 | 0.075 | 0.091 | 0.108 | 0.143 | 0.185 | 0.396 | – | – | – |
| O=c1oc2ccccc2cc1O [3- HYDROXY- COUMARIN] | – | – | – | – | – | – | – | – | 0.083 | 0.109 | 0.299 |
| COC(=O)C[C@H]1C(C)(C)[C@@H](O)[C@@H]2CC3=C4C=C(OC)O[C@@H](c5ccoc5)[C@]4(C)CCC3[C@]1(C)C2=O (stereo partly drawn) [3-DEOXO-3beta-HYDRO[…] 16-ENOL ETHER] | 3.13 | 0.102 | 0.077 | 0.091 | 0.141 | 0.219 | 0.583 | 0.625 | – | – | – |
| C=C1[C@H]2CC[C@@]3(C)[C@H](c4ccoc4)OC(=O)C[C@]13O[C@H]1C[C@H](O)C(C)(C)[C@H](CC(=O)OC)[C@]12C [3-DEOXY-3beta- HYDROXY- […] METHYL ESTER] | – | – | – | – | – | – | – | – | 0.384 | 0.641 | 0.621 |
| COc1ccc(C(=O)c2ccccc2)c(O)c1O [3-DESMETHYL- 5-DES- HYDROXY- SCLEROIN] | – | – | – | – | – | – | – | – | 0.11 | 0.149 | 0.556 |
| C[C@]12CC[C@@H](O)C[C@H]1CCc1ccccc12 [3alpha- HYDROXY-4,4- BISNOR- 8,11,13- PODO- […]] | – | – | – | – | – | – | – | – | 0.074 | 0.104 | 0.408 |
| CC(=O)O[C@@H]1CC2C(C)(C)[C@H](O)CC[C@]2(C)C2CC[C@@]3(C)[C@H](c4ccoc4)OC(=O)C4OC43[C@@]21C (stereo partly drawn) [3alpha- HYDROXY- DEOXO- DIHYDRO- GEDUNIN] | – | – | – | – | – | – | – | – | 0.137 | 0.25 | 0.146 |
| C=C1[C@H]2CC[C@@]3(C)[C@H](c4ccoc4)OC(=O)C[C@]13O[C@H]1C[C@@H](O)C(C)(C)[C@H](CC(=O)OC)[C@]12C [3alpha-HYDROXY-3- DEOXY[…] METHYL ESTER2] | 3.13 | 0.169 | 0.078 | 0.093 | 0.144 | 0.381 | 0.566 | 0.611 | – | – | – |
| C=C1C2CC[C@@]3(C)[C@H](c4ccoc4)OC(=O)C[C@]13O[C@H]1C[C@H](OC(C)=O)C(C)(C)[C@H](CC(=O)OC)[C@@]21C [3beta- ACETO[…] ACID, METHYL ESTER] | 1.56 | 0.129 | 0.096 | 0.133 | 0.374 | 0.538 | 0.571 | 0.553 | – | – | – |
| O=C(/C=C/c1ccccc1)c1ccc(O)cc1 [4'- HYDROXYCHALCONE] | 12.5 | 0.088 | 0.073 | 0.079 | 0.093 | 0.1 | 0.329 | 0.552 | – | – | – |
| COc1ccc(-c2cc(=O)c3ccccc3o2)cc1 [4′-METHOXYFLAVONE] | 1.56 | 0.111 | 0.077 | 0.136 | 0.474 | 0.567 | 0.556 | 0.557 | – | – | – |
| COc1ccccc1-c1cc(=O)c2c(OC)cccc2o1 [5,2′- DIMETHOXY- FLAVONE] | – | – | – | – | – | – | – | – | 0.088 | 0.256 | 0.383 |
| C=C1CCC2C(CC2(C)C)C(=C)CC/C1=N/O (centres unmarked) [5- HYDROXYIMINOISOC ARYOPHYLLENE] | 12.5 | 0.096 | 0.077 | 0.087 | 0.108 | 0.117 | 0.131 | 0.153 | – | – | – |
